Data on 1 compound can be found in US9790188B2, “Benzimidazole derivatives and uses thereof” (Whitehead Institute for Biomedical Research, priority 2013, dated 2017).

“Also recorded” adds a separate entry of the source.

One assay has as its system nitrosative stress. Kind of assay: Nitrosative stress (protein nitration, 3-NT antibody) in yeast synucleinopathy model. The format is cell-based.
A further assay relates to reactive oxygen species. Kind of assay: ROS detection (CM-H2DCFDA, flow cytometry) in α-syn yeast. The following applies: 10 μM, HiTox strain. The format is cell-based. The protocol:
The generation of reactive oxygen species (ROS) detected from yeast expressing untagged α-syn using the ROS sensing dye, CM-H2DCFDA (Invitrogen), as previously described (9). Briefly, log phase raffinose cultures of α-syn (non-GFP tagged) were induced with galactose with or without ABI1 for 6 hours. At this time, the dye was added for an additional 30 minutes. Cells were then analyzed using an EasyCyte flow cytometer (Guava Technologies).
On the technique in general: In flow cytometry, cells or beads pass a laser one at a time.

On to `Cc1cccc(-n2cnc3cc(C(=O)NCc4ccccc4Cl)ccc32)c1` [ABI, N-(2-chlorobenzyl)-1-(m-tolyl)-1H-benzo[d]imidazole-5-carboxamide], for which, in the assay with nitrosative stress, the nitrosative stress result is “prevented the generation of highly localized nitrosative stress”. Further, the “generation of reactive oxygen species (% of ROS-positive cells)” value with reactive oxygen species is on record as “completely abolished; also recorded: reduced the % of ROS-positive cells”.
